In the Kinase Knowledgebase extract (Sharma et al. 2016):
pIC50: −log10 of the molar value.

Columns and labels:
[1] = target: EGFR (human) (UniProt P00533); conditions: 3t3
[2] = target: EGFR (UniProt P00533)
Sequence of EGFR (P00533 whole entry, looked up): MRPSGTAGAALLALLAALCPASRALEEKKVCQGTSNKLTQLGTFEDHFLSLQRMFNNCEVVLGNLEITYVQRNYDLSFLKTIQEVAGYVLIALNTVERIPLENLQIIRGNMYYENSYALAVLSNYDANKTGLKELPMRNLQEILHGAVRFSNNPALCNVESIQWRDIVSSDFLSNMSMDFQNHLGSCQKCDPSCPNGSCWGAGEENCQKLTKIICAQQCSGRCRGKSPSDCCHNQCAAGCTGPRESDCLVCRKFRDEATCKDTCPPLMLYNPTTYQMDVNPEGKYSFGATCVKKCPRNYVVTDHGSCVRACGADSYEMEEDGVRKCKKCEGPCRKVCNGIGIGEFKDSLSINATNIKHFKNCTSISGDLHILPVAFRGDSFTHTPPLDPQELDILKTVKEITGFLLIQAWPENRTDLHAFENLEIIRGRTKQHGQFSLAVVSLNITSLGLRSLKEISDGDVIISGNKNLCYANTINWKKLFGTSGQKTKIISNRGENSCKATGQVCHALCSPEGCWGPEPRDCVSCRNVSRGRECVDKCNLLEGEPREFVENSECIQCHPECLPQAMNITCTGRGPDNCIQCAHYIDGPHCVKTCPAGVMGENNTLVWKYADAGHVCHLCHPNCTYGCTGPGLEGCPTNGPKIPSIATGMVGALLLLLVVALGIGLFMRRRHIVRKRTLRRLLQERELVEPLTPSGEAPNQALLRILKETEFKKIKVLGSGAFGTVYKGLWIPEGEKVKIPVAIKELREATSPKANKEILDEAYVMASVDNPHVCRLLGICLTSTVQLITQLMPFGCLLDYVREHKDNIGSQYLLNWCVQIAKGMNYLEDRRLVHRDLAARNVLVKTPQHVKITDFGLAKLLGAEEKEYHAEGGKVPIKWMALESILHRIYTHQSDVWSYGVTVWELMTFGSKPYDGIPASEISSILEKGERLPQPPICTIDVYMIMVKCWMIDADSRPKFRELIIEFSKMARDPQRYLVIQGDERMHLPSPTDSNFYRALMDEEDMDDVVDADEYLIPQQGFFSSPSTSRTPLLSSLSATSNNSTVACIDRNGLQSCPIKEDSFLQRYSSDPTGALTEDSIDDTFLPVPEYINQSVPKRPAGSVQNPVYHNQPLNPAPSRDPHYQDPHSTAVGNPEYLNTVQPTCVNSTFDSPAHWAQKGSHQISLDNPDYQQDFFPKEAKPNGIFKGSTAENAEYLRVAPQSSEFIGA

Sequence of EGFR (human) (P00533 whole entry, looked up): as above

| Compound | pIC50 [1] | pIC50 [2] |
| --- | --- | --- |
| Cc1[nH]c(/C=C2\C(=O)Nc3ccc(S(=O)(=O)NC(C)C)cc32)c(C)c1CCCN(C)C | 5.08 | – |
| Cc1[nH]c(/C=C2/C(=O)Nc3ccccc32)c(C)c1CCCN(C)C | 4.90 | < 4.00 |
| Cc1c(CCC(=O)O)c[nH]c1/C=C1/C(=O)Nc2ccccc21 | < 4.30 | – |
| Cc1[nH]c(/C=C2/C(=O)Nc3ccc(Cl)cc32)c(C)c1CCCN(C)C | 5.13 | < 4.00 |
| Cc1c(CCC(=O)O)c[nH]c1/C=C1/C(=O)Nc2ccc(I)cc21 | < 4.30 | – |
| COc1ccc(-c2ccc3c(c2)NC(=O)/C3=C\c2[nH]c(C)c(CCCN3CCOCC3)c2C)cc1 | < 4.30 | < 4.00 |
| CCOc1cccc(-c2ccc3c(c2)NC(=O)/C3=C\c2[nH]cc(CCC(=O)O)c2C)c1 | 4.43 | – |
| COc1ccc2c(c1)/C(=C/c1[nH]cc(CCC(=O)O)c1C)C(=O)N2 | < 4.30 | – |
| COc1ccc(-c2ccc3c(c2)NC(=O)/C3=C\c2[nH]cc(CCC(=O)O)c2C)cc1 | 4.43 | – |
| COc1ccc2c(c1)NC(=O)/C2=C\c1[nH]c(C)c(CCCN(C)C)c1C | 4.56 | < 4.00 |
| Cc1c(CCC(=O)O)c[nH]c1/C=C1/C(=O)Nc2cc(-c3ccccc3)ccc21 | 4.52 | – |
| Cc1cccc2c1/C(=C\c1[nH]cc(CCC(=O)O)c1C)C(=O)N2 | < 4.30 | – |
| Cc1[nH]c(/C=C2/C(=O)Nc3ccc(S(=O)(=O)N4CCOCC4)cc32)c(C)c1CCCN(C)C | 4.53 | – |
| Cc1[nH]c(/C=C2/C(=O)Nc3ccc(Cl)cc32)c(C)c1CCC(=O)O | < 4.30 | – |
| Cc1[nH]c(/C=C2/C(=O)Nc3ccccc32)c(C)c1CCCN1CCOCC1 | < 4.30 | < 4.00 |
| Cc1[nH]c(/C=C2/C(=O)Nc3ccc(Br)cc32)c(C)c1CCCN1CCOCC1 | 4.35 | < 4.00 |
| Cc1[nH]c(/C=C2/C(=O)Nc3ccc(S(N)(=O)=O)cc32)c(C)c1CCCN(C)C | 5.18 | – |
| CCOc1cccc(-c2ccc3c(c2)NC(=O)/C3=C\c2[nH]c(C)c(CCC(=O)O)c2C)c1 | 4.61 | – |
| COc1ccc2c(c1)NC(=O)/C2=C\c1[nH]cc(CCC(=O)O)c1C | < 4.30 | – |
| COc1ccccc1-c1ccc2c(c1)NC(=O)/C2=C\c1[nH]c(C)c(CCCN2CCOCC2)c1C | 5.41 | < 4.00 |
| CCc1ccc2c(c1)/C(=C/c1[nH]cc(CCC(=O)O)c1C)C(=O)N2 | < 4.30 | – |
| COc1cccc(-c2ccc3c(c2)NC(=O)/C3=C\c2[nH]cc(CCC(=O)O)c2C)c1 | 4.51 | – |
| Cc1[nH]c(/C=C2/C(=O)Nc3ccc(Br)cc32)c(C)c1CCCN(C)C | 5.39 | < 4.00 |
| Cc1[nH]c(/C=C2/C(=O)Nc3cccc(CCO)c32)c(C)c1CCCN(C)C | 4.60 | – |
| Cc1[nH]c(/C=C2/C(=O)Nc3ccc(Br)cc32)c(C)c1CCC(=O)O | < 4.30 | – |

| Compound | pIC50 [1] | pIC50 [2] |
| --- | --- | --- |
| COc1cc2c(cc1OC)/C(=C/c1[nH]cc(CCC(=O)O)c1C)C(=O)N2 | < 4.30 | – |
| Cc1[nH]c(/C=C2/C(=O)Nc3cc(Cl)ccc32)c(C)c1CCCN(C)C | 4.60 | 4.06 |
| Cc1c(CCC(=O)O)c[nH]c1/C=C1/C(=O)Nc2ccc(Cl)cc21 | 4.92 | – |
| COc1ccc(-c2ccc3c(c2)NC(=O)/C3=C\c2[nH]c(C)c(CCC(=O)O)c2C)cc1 | < 4.30 | – |
| Cc1ccc2c(c1)/C(=C\c1[nH]c(C)c(CCCN(C)C)c1C)C(=O)N2 | 4.60 | – |
| Cc1c(CCC(=O)O)c[nH]c1/C=C1/C(=O)Nc2cc(Cl)ccc21 | < 4.30 | – |
| COC(=O)c1ccc2c(c1)/C(=C/c1[nH]cc(CCC(=O)O)c1C)C(=O)N2 | < 4.30 | – |
| Cc1ccc2c(c1)/C(=C\c1[nH]c(C)c(CCC(=O)O)c1C)C(=O)N2 | < 4.30 | – |
| Cc1c(CCC(=O)O)c[nH]c1/C=C1/C(=O)Nc2ccc(Br)cc21 | < 4.30 | – |
| Cc1[nH]c(/C=C2/C(=O)Nc3cc(O)ccc32)c(C)c1CCC(=O)O | < 4.30 | – |
| COc1ccccc1-c1ccc2c(c1)NC(=O)/C2=C\c1[nH]c(C)c(CCCN(C)C)c1C | 5.02 | 4.64 |
| COc1cccc(-c2ccc3c(c2)NC(=O)/C3=C\c2[nH]c(C)c(CCCN3CCOCC3)c2C)c1 | 4.38 | < 4.00 |
| Cc1[nH]c(/C=C2/C(=O)Nc3cc(-c4ccccc4)ccc32)c(C)c1CCCN(C)C | 5.40 | < 4.00 |
| Cc1[nH]c(/C=C2/C(=O)Nc3cc(-c4ccccc4)ccc32)c(C)c1CCCN1CCOCC1 | < 4.30 | < 4.00 |
| COc1ccc2c(c1)NC(=O)/C2=C\c1[nH]c(C)c(CCC(=O)O)c1C | < 4.30 | – |
| Cc1[nH]c(/C=C2/C(=O)Nc3ccc(I)cc32)c(C)c1CCC(=O)O | < 4.30 | – |
| Cc1[nH]c(/C=C2/C(=O)Nc3cc(-c4ccccc4)ccc32)c(C)c1CCC(=O)O | 4.49 | – |
| Cc1cccc2c1/C(=C\c1[nH]c(C)c(CCCN(C)C)c1C)C(=O)N2 | 4.69 | – |
| COc1ccc(-c2ccc3c(c2)NC(=O)/C3=C\c2[nH]c(C)c(CCCN(C)C)c2C)cc1 | 5.41 | < 4.00 |
| COc1cccc(-c2ccc3c(c2)NC(=O)/C3=C\c2[nH]c(C)c(CCCN(C)C)c2C)c1 | 5.02 | 4.55 |
| Cc1ccc2c(c1)/C(=C\c1[nH]cc(CCC(=O)O)c1C)C(=O)N2 | < 4.30 | – |
| Cc1[nH]c(/C=C2/C(=O)Nc3ccc(S(=O)(=O)N(C)C)cc32)c(C)c1CCCN(C)C | 4.95 | – |
| COc1ccc2c(c1)/C(=C/c1[nH]c(C)c(CCCN(C)C)c1C)C(=O)N2 | 4.96 | < 4.00 |
| Cc1cccc2c1/C(=C\c1[nH]c(C)c(CCC(=O)O)c1C)C(=O)N2 | < 4.30 | – |
| Cc1c(CCC(=O)O)c[nH]c1/C=C1/C(=O)Nc2cc(Br)ccc21 | < 4.30 | – |
